# Biological target: T1, human GLP-1R (Homo sapiens, UniProt P43220)
# T1 construct: expressed in transfected cells; host or cells: PEAK RAPID-derived Gα15-trans48 LD stably expressing cells (PRG48), transiently transfected with Lipofectamine 2000
# Assay: GLP-1 receptor in vitro calcium assay (intracellular free calcium concentration change induced via GLP-1 receptor)
# Type: cell-based
# Details: for EC50: PRG48 cells transfected with human GLP-1R, compound added with 250 pM GLP-1, Ca2+ response ΔF/F, read-out: Ca EC50 value; for GLP-1 receptor action enhancing activity (vs BETP): intensity compared to BETP, activity of BETP as 1
# Method: The supernatant was removed by centrifugation (1,200 rpm, 3 min), and the cells were suspended at 4×10^6 cells/mL in 5% FBS DMEM/Ham's F-12. 1.0 mL thereof was seeded in a 15 cm dish and cultured (37° C., 5% CO2) overnight. The next day, the medium of the cultured PRG48 cells was replaced with 5% FBS DMEM/Ham's F-12 medium (30 mL), human GLP-1R gene mixture solution (GLP-1R/pc.DNA3.1(+) 60 μg) prepared using 6.0 mL of Opti-MEM (invitrogen) and 120 μL of Lipofectamin 2000 (invitrogen) was slowly added to the cells, and cultured (37° C., 5% CO2) for 6 hr to introduce the gene. […] The cells were counted, suspended at 0.5×10^6 cells/mL in 5% FBS DMEM/Ham's F-12 medium, and seeded in each well of D-Lysine coat 96 well plate (BD Bioscience) at 7.0×10^4 cells. After static adhesion at room temperature for 1 hr, the cells were cultured overnight (37° C., 5% CO2). The medium in the Cultured 96 well was entirely discarded, 150 μL of intracellular calcium measurement staining solution Calcium assay kit Express (Molecular Device) diluted 80-fold with Assay buffer (20 mM HEPES, 146 mM NaCl, 1 mM MgSO4, 1.39 mM glucose, 1 mM CaCl2, 2.5 mM Probenecid, 0.05% Casein Enzymatic Hydrolysate) was added, and the mixture was stood at 37° C. for 30 min, and then at room temperature for 45 min to perform staining. After staining, 250 pM GLP-1 and the compound were added and Ca^2+ response was observed by using FDSSμCELL (Hamamatsu Photonics K.K.). Each evaluation compound was dissolved in DMSO, further diluted with Assay buffer and used.
# For evaluation, the fluorescence values (Ex480:Em540) before and after addition were measured, and changes in the intracellular free calcium concentration produced via GLP-1R receptor by the addition were quantitatively examined. For the measurement and analysis of the fluorescence values, a soft (FDSS7000EX) attached to the FDSSμCELL was used, and ΔF/F value ((maximum fluorescence value after stimulation−minimum fluorescence value after stimulation)/fluorescence value before stimulation) was calculated. Using the obtained ΔF/F values, EC50 value was calculated by Prism5.
# T1 sequence (P43220 24-463): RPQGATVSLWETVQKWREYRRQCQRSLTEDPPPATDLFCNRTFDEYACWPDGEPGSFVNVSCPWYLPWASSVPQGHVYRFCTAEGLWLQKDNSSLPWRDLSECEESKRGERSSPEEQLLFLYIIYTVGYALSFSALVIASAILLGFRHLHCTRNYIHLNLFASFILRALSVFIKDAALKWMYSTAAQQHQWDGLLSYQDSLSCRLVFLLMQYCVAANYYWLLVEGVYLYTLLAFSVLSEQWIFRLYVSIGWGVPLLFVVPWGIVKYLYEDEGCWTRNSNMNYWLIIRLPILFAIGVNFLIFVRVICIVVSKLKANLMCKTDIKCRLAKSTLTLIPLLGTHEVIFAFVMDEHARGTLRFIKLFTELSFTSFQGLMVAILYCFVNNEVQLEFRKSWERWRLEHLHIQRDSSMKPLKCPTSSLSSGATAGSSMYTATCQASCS
EC50 [nM],GLP-1 receptor action enhancing activity (vs BETP),Compound
360,71,CCCCCCNC(=O)[C@@H](CC1CCCCC1)NC(=O)Nc1ccc(NS(=O)(=O)c2ccc(C)cc2)cc1 [Compound 18]
150,169,CC(C)(C)SCCCCCNC(=O)[C@@H](CC1CCCCC1)NC(=O)Nc1ccc(NS(=O)(=O)c2ccc(C(C)(C)C)cc2)cc1 [Compound 99]
4.6,,CC(C)CCCC(C)NC(=O)[C@H](Cc1ccc(Cl)cc1)NC(=O)Nc1ccc(NS(=O)(=O)c2ccc(C(C)(C)C)cc2)cc1 (stereo partly drawn) [Compound 58]
1300,20,COc1cc(NC(=O)N[C@H](Cc2ccccc2)C(=O)OC(C)(C)C)ccc1NS(=O)(=O)c1ccc(C)cc1 [Compound 88]
56,446,CSCCCNC(=O)[C@@H](CC1CCCCC1)NC(=O)Nc1ccc(NS(=O)(=O)c2ccc(C(C)(C)C)cc2)cc1 [Compound 91]
1500,17,Cc1ccc(S(=O)(=O)Nc2cccc(NC(=O)N[C@@H](Cc3ccccc3)C(=O)OC(C)(C)C)c2)cc1 [Compound 79]
1400,18,Cc1ccc(S(=O)(=O)Nc2ccc(NC(=O)N[C@H](Cc3ccccc3)c3nnc(S)n3-c3ccccc3)cc2)cc1 [Compound 90]
280,91,CCCCCCN(C)C(=O)[C@@H](Cc1ccccc1)NC(=O)Nc1ccc(NS(=O)(=O)c2ccc(C)cc2)cc1 [Compound 53]
660,38,CCCCCNC(=O)[C@@H](Cc1ccccc1)NC(=O)Nc1ccc(NS(=O)(=O)c2ccc(C)cc2)cc1 [Compound 35]
1300,20,Cc1ccc(S(=O)(=O)Nc2ccc(NC(=O)N[C@H](Cc3ccccc3)c3nc(C(C)(C)C)no3)cc2)cc1 [Compound 70]
1500,17,CCCCCCNC(=O)[C@@H](CCSC)NC(=O)Nc1ccc(NS(=O)(=O)c2ccc(C)cc2)cc1 [Compound 20]
24,1028,CC(C)CCCC(C)NC(=O)[C@@H](CC1CCCCC1)NC(=O)Nc1cccc(NS(=O)(=O)c2ccc(C(C)(C)C)cc2)c1 (stereo partly drawn) [Compound 92]
1800,14,Cc1ccc(S(=O)(=O)Nc2ccc(NC(=O)N[C@H](Cc3ccccc3)C(=O)NCc3ccccc3)cc2)cc1 [Compound 14]
1400,18,COc1ccc(CNC(=O)[C@@H](Cc2ccccc2)NC(=O)Nc2ccc(NS(=O)(=O)c3ccc(C)cc3)cc2)cc1 [Compound 25]
130,195,CC(C)CCCC(C)NC(=O)[C@@H](Cc1cccnc1)NC(=O)Nc1cccc(NS(=O)(=O)c2ccc(C(C)(C)C)cc2)c1 (stereo partly drawn) [Compound 103]
660,38,Cc1ccc(S(=O)(=O)Nc2ccc(NC(=O)N[C@@H](Cc3c[nH]c4ccccc34)C(=O)OC(C)(C)C)cc2)cc1 [Compound 67]
1700,15,Cc1ccc(S(=O)(=O)Nc2ccc(NC(=O)N[C@H](Cc3ccccc3)C(=O)NC3CCCCC3)cc2)cc1 [Compound 3]
720,35,COCCCNC(=O)[C@@H](CC1CCCCC1)NC(=O)Nc1ccc(NS(=O)(=O)c2ccc(C(C)(C)C)cc2)cc1 [Compound 107]
22,1149,Cc1ccc(S(=O)(=O)Nc2ccc(NC(=O)N[C@H](CC3CCCCC3)C(=O)NCCC3CCCCC3)cc2)cc1 [Compound 45]
250,101,CCCCCCNC(=O)[C@@H](Cc1c[nH]c2ccccc12)NC(=O)Nc1cccc(NS(=O)(=O)c2ccc(C(C)(C)C)cc2)c1 [Compound 95]
260,98,Cc1ccc(S(=O)(=O)Nc2ccc(NC(=O)N[C@H](CC(C)C)C(=O)N[C@H](Cc3ccccc3)c3nc(C(C)(C)C)no3)cc2)cc1 [Compound 89]

EC50 [nM],GLP-1 receptor action enhancing activity (vs BETP),Compound
1200,22,Cc1ccc(S(=O)(=O)Nc2ccc(NC(=S)N[C@H](Cc3ccccc3)C(=O)OC(C)(C)C)cc2)cc1 [Compound 68]
180,140,CC(C)CCCC(C)NC(=O)[C@@H](Cc1c[nH]c2ccccc12)NC(=O)Nc1cccc(NS(=O)(=O)c2ccc(C(C)(C)C)cc2)c1 (stereo partly drawn) [Compound 94]
370,68,Cc1ccc(S(=O)(=O)Nc2ccc(NC(=O)N[C@H](Cc3ccccc3)C(=O)NC3CCCCCC3)cc2)cc1 [Compound 23]
160,160,Cc1ccc(S(=O)(=O)Nc2ccc(NC(=O)N[C@H](Cc3c[nH]c4ccccc34)C(=O)NC3CCCCCC3)cc2)cc1 [Compound 43]
1.5,17107,"CC(C)CCCC(C)NC(=O)[C@@H](CC1CCCCC1)NC(=O)N(CC(=O)O)c1ccc(NS(=O)(=O)c2ccc(C(C)(C)C)cc2)cc1 (stereo partly drawn) [Compound 108, 2-(4-[(4-tert-butylphenyl)sulfonylamino]-N-{[(1R)-1-(cyclohexylmethyl)-2-(1,5-dimethylhexylamino)-2-oxo-ethyl]carbamoyl}anilino)acetic acid]"
15,1710,Cc1ccc(S(=O)(=O)Nc2ccc(NC(=O)N[C@H](Cc3ccccc3)C(=O)NC(C)(C)C34CC5CC(CC(C5)C3)C4)cc2)cc1 [Compound 61]
1900,14,CC(C)(C)OC(=O)[C@H](Cc1ccccc1)NC(=O)Nc1ccc(NS(=O)(=O)Cc2ccccc2)cc1 [Compound 74]
1700,15,Cc1ccc(S(=O)(=O)Nc2ccc(NC(=O)N[C@H](Cc3ccccc3)C(=O)NCCc3ccccc3)cc2)cc1 [Compound 13]
10,2534,CCCCC(CC)CNC(=O)[C@H](Cc1c[nH]c2ccccc12)NC(=O)Nc1ccc(NS(=O)(=O)c2ccc(C(C)(C)C)cc2)cc1 (stereo partly drawn) [Compound 49]
430,58,Cc1ccc(S(=O)(=O)Nc2ccc(N(C)C(=O)N[C@H](Cc3ccccc3)C(=O)OC(C)(C)C)cc2)cc1 [Compound 86]
1800,14,Cc1ccc(S(=O)(=O)Nc2ccc(NC(=O)N[C@H](CC(C)C)C(=O)NCCc3cccs3)cc2)cc1 [Compound 28]
650,39,COC(C)(C)CNC(=O)[C@@H](Cc1ccccc1)NC(=O)Nc1ccc(NS(=O)(=O)c2ccc(C)cc2)cc1 [Compound 9]
45,558,Cc1ccc(S(=O)(=O)Nc2ccc(NC(=O)N[C@H](Cc3ccccc3)C(=O)NC(C)CCCC(C)C)cc2)cc1 (stereo partly drawn) [Compound 55]
64,391,CCCCC(CC)CNC(=O)[C@@H](Cc1ccccc1)NC(=O)Nc1ccc(NS(=O)(=O)c2ccc(C)cc2)cc1 (stereo partly drawn) [Compound 34]
42,599,Cc1ccc(S(=O)(=O)Nc2ccc(NC(=O)N[C@H](Cc3ccccc3)C(=O)NCC(F)(F)F)cc2)cc1 [Compound 15]
45,555,CCCCCCNC(=O)[C@@H](CC1CCCCC1)NC(=O)Nc1cccc(NS(=O)(=O)c2ccc(C(C)(C)C)cc2)c1 [Compound 93]
1600,15,Cc1ccc(S(=O)(=O)Nc2ccc(NC(=O)N[C@H](CC(C)C)C(=O)OC(C)(C)C)cc2)cc1 [Compound 64]
4.3,5794,CCCOc1ccc(-c2noc([C@H](CC3CCCCC3)NC(=O)Nc3ccc(NS(=O)(=O)c4ccc(C(C)(C)C)cc4)cc3)n2)cc1 [Compound 83]
480,52,Cc1ccc(S(=O)(=O)Nc2ccc(NC(=O)N[C@H](Cc3ccccc3)C(=O)N[C@@H](C)c3ccccc3)cc2)cc1 [Compound 31]
490,52,CCCCCCNC(=O)[C@@H](CC(C)C)NC(=O)Nc1ccc(NS(=O)(=O)c2ccc(C)cc2)cc1 [Compound 11]

# Reference: patent US20190022039A1, “COMPOUND HAVING ENHANCING ACTIVITY FOR GLUCAGON-LIKE PEPTIDE-1 RECEPTOR ACTIONS” (AJINOMOTO CO., INC., priority 2016, published 2019)
